System: primary mouse hepatocytes
Test: Gene expression (Affymetrix Mouse Genome 430 2.0) in primary mouse hepatocytes, true vs false GTX, 24 h and 48 h
Conditions: log2, corrected for vehicle control

Q: With `Nc1ccc([N+](=O)[O-])cc1N` [4-NP, 4-Nitro-o-phenylenediamine] as the compound, how does the “Gene expression data AF000969 (Cadps2)” value (24 h average) read?
A: −0.6839

Q: And the “Gene expression data AF022072 (Grb10)” value (24 h average)?
A: 0.8486

Q: What about the “Gene expression data AF065917 (Lif)” value (24 h average) of the same compound?
A: −0.4573

Q: What about the “Gene expression data AF204959 (Cyp3a25 /// LOC622249)” value (24 h average) of the same compound?
A: −2.025

Q: What about the “Gene expression data AF297615 (Ggta1)” value (24 h average) of the same compound?
A: −0.2797

Q: What about the “Gene expression data AI594683 (Dmn)” value (24 h average) of the same compound?
A: −0.3517

Q: And the “Gene expression data AI596632 (Ptprg /// LOC632664)” value (24 h average)?
A: −0.4962

Q: What about the “Gene expression data AI987929 (Ndrg1)” value (24 h average) of the same compound?
A: 2.65

Q: And the “Gene expression data AK004419 (Fbxl17)” value (24 h average)?
A: −0.0775

Q: And the “Gene expression data AK005731 (1700007K13Rik)” value (24 h average)?
A: −0.5111

Q: And the “Gene expression data AK007766 (1810044A24Rik)” value (24 h average)?
A: −0.1697

Q: What about the “Gene expression data AK007854 (1810053B23Rik)” value (24 h average) of the same compound?
A: −1.736

Q: And the “Gene expression data AK009736 (Gpr137b /// LOC664862 /// LOC673335)” value (24 h average)?
A: 1.582

Q: And the “Gene expression data AK010447 (Smyd3)” value (24 h average)?
A: 0.4967

Q: And the “Gene expression data AK014608 (4632434l11Rik)” value (24 h average)?
A: 0.2958

Q: What about the “Gene expression data AK019979 (2610528E23Rik)” value (24 h average) of the same compound?
A: 0.9384

Q: What about the “Gene expression data AV095209 (Mthfd1l)” value (24 h average) of the same compound?
A: 0.9072

Q: What about the “Gene expression data AV141095 (1110033M05Rik)” value (24 h average) of the same compound?
A: 0.1789

Q: And the “Gene expression data AV173571 (1700106N22Rik)” value (24 h average)?
A: −0.003133

Q: And the “Gene expression data AV219418 (Ldhb)” value (24 h average)?
A: −1.032

Q: And the “Gene expression data AV223474 (Zdhhc14)” value (24 h average)?
A: −0.08437

Q: And the “Gene expression data AV298304 (Homez)” value (24 h average)?
A: −0.5839

Q: What about the “Gene expression data AV327248 (Zfp365 /// LOC674611)” value (24 h average) of the same compound?
A: −0.08917

Q: What about the “Gene expression data AV377066 (9130221J18Rik)” value (24 h average) of the same compound?
A: −1.695

Q: And the “Gene expression data AW240761 (Tbc1d5)” value (24 h average)?
A: 0.02697

Q: What about the “Gene expression data AW543460 (Pard3)” value (24 h average) of the same compound?
A: 0.9127

Q: What about the “Gene expression data AW543723” value (24 h average) of the same compound?
A: 0.6706

Q: What about the “Gene expression data AW986246 (Maoa)” value (24 h average) of the same compound?
A: 1.7055

Q: And the “Gene expression data BB027848 (4732466D17Rik)” value (24 h average)?
A: −1.7858

Q: What about the “Gene expression data BB043558 (9230114K14Rik)” value (24 h average) of the same compound?
A: −0.4159

Q: What about the “Gene expression data BB275142 (AW456874)” value (24 h average) of the same compound?
A: −0.4184

Q: And the “Gene expression data BB308836 (Ppm1l)” value (24 h average)?
A: 0.03763

Q: What about the “Gene expression data BB318221 (Zdhhc14)” value (24 h average) of the same compound?
A: 0.0942

Q: What about the “Gene expression data BB463610 (4632434l11Rik)” value (24 h average) of the same compound?
A: 0.2106

Q: And the “Gene expression data BB526605 (Mipol1)” value (24 h average)?
A: 1.641

Q: And the “Gene expression data BB770528 (Rai2)” value (24 h average)?
A: −1.122

Q: And the “Gene expression data BB821363 (Scfd2)” value (24 h average)?
A: −0.219

Q: What about the “Gene expression data BC004827 (Psat1)” value (24 h average) of the same compound?
A: 0.5395

Q: What about the “Gene expression data BC008626 (Icam1)” value (24 h average) of the same compound?
A: −2.248

Q: What about the “Gene expression data BC010462 (BC010462)” value (24 h average) of the same compound?
A: −0.8654

Q: And the “Gene expression data BC012247 (Dcxr)” value (24 h average)?
A: −1.5

Q: And the “Gene expression data BC012260 (Psmf1)” value (24 h average)?
A: 0.1189

Q: What about the “Gene expression data BC015270 (Hist2h3c2)” value (24 h average) of the same compound?
A: −0.7846

Q: What about the “Gene expression data BC016073 (Cdkal1)” value (24 h average) of the same compound?
A: 0.3627

Q: And the “Gene expression data BC016265 (Ube2e2)” value (24 h average)?
A: 0.03433

Q: And the “Gene expression data BC019882 (Acaa1b)” value (24 h average)?
A: −1.259

Q: And the “Gene expression data BC025501 (Aaas)” value (24 h average)?
A: −0.2167

Q: What about the “Gene expression data BC025837 (Sbk1)” value (24 h average) of the same compound?
A: −0.8181

Q: What about the “Gene expression data BC025915 (Cova1)” value (24 h average) of the same compound?
A: 0.3343

Q: And the “Gene expression data BC026422 (Tgm1)” value (24 h average)?
A: −0.8176

Q: And the “Gene expression data BF719766 (Thyn1)” value (24 h average)?
A: −0.2859

Q: What about the “Gene expression data BG065754 (Ccng1)” value (24 h average) of the same compound?
A: −0.2503

Q: And the “Gene expression data BG066903 (Kif16b)” value (24 h average)?
A: 1.005

Q: What about the “Gene expression data BG069873 (Gnb1l)” value (24 h average) of the same compound?
A: −0.1326

Q: What about the “Gene expression data BG070887 (Gtdc1)” value (24 h average) of the same compound?
A: 0.3432

Q: What about the “Gene expression data BG076151 (Ppm1d)” value (24 h average) of the same compound?
A: −0.2933

Q: And the “Gene expression data BG261907 (Large)” value (24 h average)?
A: 0.3643

Q: And the “Gene expression data BI651416 (Cdc42bpg)” value (24 h average)?
A: −0.0339

Q: What about the “Gene expression data BI660702 (Ell3)” value (24 h average) of the same compound?
A: −0.609

Q: What about the “Gene expression data BM198879 (Ercc5)” value (24 h average) of the same compound?
A: −0.3288

Q: What about the “Gene expression data BM230508 (A030007D23Rik)” value (24 h average) of the same compound?
A: −0.6065

Q: What about the “Gene expression data NM_007987 (Fas)” value (24 h average) of the same compound?
A: −1.231

Q: What about the “Gene expression data NM_008522 (Ltf)” value (24 h average) of the same compound?
A: −0.3018

Q: And the “Gene expression data NM_008576 (Abcc1)” value (24 h average)?
A: 1.696

Q: And the “Gene expression data NM_011176 (St14)” value (24 h average)?
A: −0.5717

Q: And the “Gene expression data NM_011316 (Saa4)” value (24 h average)?
A: −0.5909

Q: And the “Gene expression data NM_012006 (Acot1)” value (24 h average)?
A: −1.4501

Q: And the “Gene expression data NM_013866 (Zfp385)” value (24 h average)?
A: −0.2808

Q: What about the “Gene expression data NM_018770 (Igsf4a)” value (24 h average) of the same compound?
A: 0.3868

Q: And the “Gene expression data NM_021451 (Pmaip1)” value (24 h average)?
A: −1.505

Q: And the “Gene expression data NM_025770 (Atg10)” value (24 h average)?
A: 1.051

Q: And the “Gene expression data NM_028803 (Gbe1)” value (24 h average)?
A: 0.3633

Q: And the “Gene expression data NM_030697 (Ankrd47)” value (24 h average)?
A: 0.1816

Q: What about the “Gene expression data NM_053168 (Trim11)” value (24 h average) of the same compound?
A: −0.1598

Q: What about the “Gene expression data NM_134188 (Acot2)” value (24 h average) of the same compound?
A: −0.7637

Q: And the “Gene expression data Y15910 (Diap2)” value (24 h average)?
A: −0.5398

Q: And the “Gene expression AA561726 average” value (48 h)?
A: −0.08

Q: And the “Gene expression AF000969 average” value (48 h)?
A: −0.8202

Q: And the “Gene expression AF022072 average” value (48 h)?
A: 0.6062

Q: What about the “Gene expression AF033112 average” value (48 h) of the same compound?
A: 0.152

Q: What about the “Gene expression AF055573 average” value (48 h) of the same compound?
A: −0.1973

Q: What about the “Gene expression AF069954 average” value (48 h) of the same compound?
A: −0.4429

Q: What about the “Gene expression AF297615 average” value (48 h) of the same compound?
A: −1.352

Q: And the “Gene expression AF335325 average” value (48 h)?
A: 0.5071

Q: And the “Gene expression AI594683 average” value (48 h)?
A: −0.4763

Q: What about the “Gene expression AI747296 average” value (48 h) of the same compound?
A: −0.3288

— patent US20120122727A1, “IN VITRO METHOD FOR PREDICTING WHETHER A COMPOUND IS GENOTOXIC IN VIVO” (priority 2009, published 2012)
